SMILES strings stand for the structures. Calls of active or inactive are those of the source. The calls are words filed in the database; no cut-off is given here.

Assay [1] has as its system U-87 MG. The assay can be described thus: Antiproliferative activity against human U87 cells assessed as reduction in cell viability measured after 72 hrs by MTT assay. The assay is classed as functional, cell-based, U-87MG ATCC.
Assay [2] deals with U-251. The assay is described as follows: Antiproliferative activity against human U-251 cells assessed as reduction in cell viability measured after 72 hrs by MTT assay. Type of assay: functional, cell-based. To be noted: U-251, 72 h. Background: Tetrazolium dyes change colour on reduction, which living cells bring about.
Assay [3] deals with Daoy. The assay is described as follows: Antiproliferative activity against human Daoy cells assessed as reduction in cell viability measured after 72 hrs by MTT assay. Type of assay: functional, cell-based.
Assay [4] relates to MDA-MB-231. The assay is described as follows: Antiproliferative activity against human MDA-MB-231 cells assessed as reduction in cell viability measured after 72 hrs by MTT assay. Type of assay: functional, cell-based. To be noted: MDA-MB-231, 72 h.
Assay [5] deals with U-251. The assay is described as follows: Induction of apoptosis in human U-251 cells assessed as increase in accumulation of cells at sub-G1 phase at 0.1 uM measured after 72 hrs by propidium iodide staining based flow cytometry. The assay is classed as functional, cell-based. On the technique in general: A flow cytometer gives signals particle by particle.
Assay [6] concerns U-251. The assay is described as follows: Induction of cell cycle arrest in human U-251 cells assessed as increase in accumulation of cells at G1 phase at 0.1 uM measured after 72 hrs by propidium iodide staining based flow cytometry. The assay is classed as functional.
The test system of assay [7] is U-87 MG. The assay is described as follows: Antiproliferative activity against human U87 cells assessed as reduction in cell viability at 0.1 to 250 uM measured after 72 hrs by MTT assay. Type of assay: functional, cell-based. To be noted: U-87MG ATCC, dose 0.1-250 µM.
For assay [8], the system named is U-251. The assay can be described thus: Antiproliferative activity against human U-251 cells assessed as reduction in cell viability at 0.1 to 250 uM measured after 72 hrs by MTT assay. Type of assay: functional, cell-based. As to conditions: dose 0.1-250 µM.
The test system of assay [9] is Daoy. The assay is described as follows: Antiproliferative activity against human Daoy cells assessed as reduction in cell viability at 0.1 to 250 uM measured after 72 hrs by MTT assay. The assay is classed as functional, cell-based. As to conditions: dose 0.1-250 µM.
Assay [10] deals with MDA-MB-231. The assay can be described thus: Antiproliferative activity against human MDA-MB-231 cells assessed as reduction in cell viability at 0.1 to 250 uM measured after 72 hrs by MTT assay. To be noted: dose 0.1-250 µM. The assay is classed as functional, cell-based.
In assay [11] the test system is U-251. The assay is described as follows: Induction of cell cycle arrest in human U-251 cells assessed as accumulation at S phase at 1 uM measured after 72 hrs by propidium iodide staining based flow cytometry. Type of assay: functional.
Assay [12] concerns U-251. The assay can be described thus: Induction of cell cycle arrest in human U-251 cells assessed as accumulation at G2/M phase at 1 uM measured after 72 hrs by propidium iodide staining based flow cytometry. Type of assay: functional.
Assay [13] concerns U-251. The assay is described as follows: Induction of cell cycle arrest in human U-251 cells assessed as accumulation at G1 phase at 1 uM measured after 72 hrs by propidium iodide staining based flow cytometry. The assay is classed as functional.

One may read the IC50 as the point on the concentration scale where inhibition reaches its midpoint. `COc1cccc2c1C(=O)c1c(O)c3c(c(O)c1C2=O)C[C@@](O)(C(=O)CO)C[C@@H]3O[C@H]1C[C@H](N)[C@H](O)[C@H](C)O1` [DOXORUBICIN]: the half-maximal inhibitory concentration (IC50) came out at 0.186 µM in the assay on U-87 MG [1], 0.106 µM in the assay with U-251 [2], 0.0629 µM with Daoy [3] and 0.482 µM in the assay with MDA-MB-231 [4]. For the same molecule, the outcome in the assay with U-251 [5] and in the assay on U-251 [6] was Active.
Turning to `O=C1C[C@H]2O[C@@H](CO)[C@@H](OCc3ccccc3)[C@H]2O1`, the result in the assay with U-87 MG [7], in the assay with U-251 [8], with Daoy [9] and in the assay with MDA-MB-231 [10] was inactive.
As for `O=C1C[C@H]2O[C@@H]([C@H](O)c3ccccc3)[C@@H](O)[C@H]2O1`, the outcome with U-87 MG [7], with U-251 [8], with Daoy [9] and in the assay with MDA-MB-231 [10] was inactive.
In the case of `O=C1C[C@H]2O[C@@H](CO)[C@@H](O)[C@H]2O1`, the result with U-87 MG [7], in the assay on U-251 [8], in the assay on Daoy [9] and with MDA-MB-231 [10] was inactive.
Turning to `O=C1C[C@H]2O[C@H](CO)[C@@H](OCc3ccccc3)[C@H]2O1`, the result with U-87 MG [7], in the assay on U-251 [8], in the assay on Daoy [9] and with MDA-MB-231 [10] was inactive.
Regarding `O=C1C[C@H]2O[C@@H]([C@@H](O)c3ccccc3)[C@@H](O)[C@H]2O1`, the result with U-87 MG [7], in the assay with U-251 [8], in the assay with Daoy [9] and in the assay on MDA-MB-231 [10] was inactive.
In the case of `O=C1C[C@H]2O[C@H](CO)[C@@H](O)[C@H]2O1`, the result with U-87 MG [7], with U-251 [8], in the assay with Daoy [9] and in the assay with MDA-MB-231 [10] was inactive.
With `O=C1C[C@H]2O[C@@H](CI)[C@@H](O)[C@H]2O1`, the concentration for half-maximal inhibition (IC50) in the assay on U-87 MG [1] came out at 7.61 µM; in the assay on U-251 [2], 529 µM; in the assay on Daoy [3], 141 µM. Further, the result in the assay on U-251 [11], in the assay on U-251 [12] and with U-251 [13] was inactive.
For `O=C(/C=C/c1ccccc1)O[C@H](c1ccccc1)[C@@H]1O[C@@H]2CC(=O)O[C@@H]2[C@@H]1O`, the half-inhibitory concentration (IC50) with U-87 MG [1] worked out at 32.4 µM; in the assay with U-251 [2], 1.34 µM; with Daoy [3], 612 µM; in the assay with MDA-MB-231 [4] it was 535 µM. For the same molecule, the outcome with U-251 [11], with U-251 [12] and in the assay with U-251 [13] was inactive.

The values above are taken from ChEMBL document CHEMBL4834475, “Synthesis of anti-proliferative [3.3.0]furofuranone derivatives by lactonization and functionalization of C-glycosyl compounds” (Bioorg Med Chem, 2021).
